Laboratory results taken from paper PMC5562305, “Impact of novel palmitoylated prolactin-releasing peptide analogs on metabolic changes in mice with diet-induced obesity” (PLoS ONE, 2017).
Values joined by “and” are separate entries in the source; they are usually repeats but may differ in a detail not shown here. Identical values can stand only once. Like-named read-outs stand apart in the source and are kept apart here. Starred links: 1 amine or outer side, 2 acyl side, 3 side chain; linkers in the order of their positions; H or OH if unused. Residues, ends and D or L forms follow the SMILES beside them. Groups on a side chain read outwards from the residue. *: point of attachment. TTDA(Palmitoyl) = CCCCCCCCCCCCCCCC(=O)NCCCOCCOCCOCCCN*; γGlu = O=C(O)[C@H](CCC(=O)[*:2])N[*:1]; Palmitoyl = CCCCCCCCCCCCCCCC(=O)*; Suc = O=C(CCC(=O)[*:2])[*:1]

Experiments:
c-Fos = assay: Fos immunohistochemistry in mouse brain; type: in vivo; conditions: overnight fasted mice, 5 mg/kg SC, 90 min after injection, n = 4, vs saline
Protocol: Ninety minutes after injection, the mice were deeply anesthetized with sodium pentobarbital (50 mg/kg, intraperitoneally) and perfused transcardially. The brains were withdrawn, and c-Fos immunoreactivity was determined as described in [19, 20].
For the immunohistochemical study, the c-Fos rabbit monoclonal antibody (Cell Signaling Technology, #2250S) detecting total level of endogenous c-Fos protein was used in final dilution (1:2000) for 48 h (4°C).

[1] = Body weight of DIO mice during 2-week SC treatment; type: in vivo, C57BL/6 mice; conditions: for Decrease of average BW at the end of the experiment: 5 mg/kg SC twice a day, 2 weeks
Source text: (§1) Inbred C57BL/6 male mice that were 3 weeks old were obtained from Charles River Laboratories (Sulzfeld, Germany). […] From 8 weeks of age, the mice were fed in house made high-fat (HF) diet to induce obesity. […] After twelve weeks of HF-diet feeding, two weeks of SC administration of lipidized PrRP analogs was initiated while the mice were kept on the HF diet. The following experimental groups were established: […] Food intake and BW were monitored daily during the dosing period.

human NPFF2 = target: T1, human NPFF2 (Homo sapiens, UniProt Q9Y5X5); assay: Competitive binding of 125I-1DMe to human NPFF2 receptor membranes; conditions: for % binding human PrRP31 (NPFF2): Ki relative to human PrRP31 = 100
T1 construct: purchased Perkin Elmer; host or cells: CHO-K1 cell membranes
Protocol: (§2) CHO-K1 cells expressing the GPR10 receptor (Thermo Fisher Scientific Inc., Waltham, MA, USA) were grown according to the manufacturer's instructions. Saturation and competitive binding experiments were performed according to the methods of Motulsky and Neubig. […] The experiments were performed on plated cells that were incubated for 60 min at 25°C. Non-specific binding was determined using 10^−5 M PrRP31. The binding assays involving human NPFF2 receptor membranes obtained from Perkin Elmer were performed as described in [18].
(§3) Data are presented as the means ± SEM. The competitive binding curves were plotted using GraphPad software (San Diego, CA, USA), and the best fits were compared for single-binding-site models (IC50 values were obtained from nonlinear regression analysis). Inhibition constants (Ki) were calculated from the IC50 values using the Cheng-Prusoff equation [23]. The concentration of the radioligand was 0.1 nM for cell membranes of CHO-K1 cells overexpressing NPFF2 and 0.03 nM for CHO-K1 cells overexpressing GPR10.

GPR10 [2] = target: T2, GPR10 (Homo sapiens, UniProt P49683); assay: Competitive binding of 125I-human PrRP31 to plated CHO-K1 cells expressing GPR10; set-up: host or cells: CHO-K1; conditions: for Ki: CHO-K1 cells, 0.03 nM radioligand, 60 min 25°C, Cheng-Prusoff, mean ± SEM of at least three experiments, SEM; for % binding human PrRP31 (GPR10): Ki relative to human PrRP31 = 100; for 125I-human PrRP31 binding to human GPR10, Ki: single experiments (replicates listed below each other)
T2 sequence (P49683 1-370): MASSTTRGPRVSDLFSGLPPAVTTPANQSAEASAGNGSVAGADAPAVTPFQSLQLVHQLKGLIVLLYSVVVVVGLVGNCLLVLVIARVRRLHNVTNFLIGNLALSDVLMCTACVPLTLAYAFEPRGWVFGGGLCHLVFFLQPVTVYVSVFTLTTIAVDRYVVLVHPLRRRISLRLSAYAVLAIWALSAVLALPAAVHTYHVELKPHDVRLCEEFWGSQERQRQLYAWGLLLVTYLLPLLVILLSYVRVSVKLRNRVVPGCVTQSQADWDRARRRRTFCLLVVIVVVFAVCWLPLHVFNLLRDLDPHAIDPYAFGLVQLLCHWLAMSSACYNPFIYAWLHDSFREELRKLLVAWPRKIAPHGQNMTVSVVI
Protocol: as §2, §3

[3] = Adipose tissue and liver weights in DIO mice at the end of the experiment; type: in vivo, C57BL/6 mice; conditions: 5 mg/kg SC twice a day, 2 weeks, n = 10, mean ± SEM
Source text: From 8 weeks of age, the mice were fed in house made high-fat (HF) diet to induce obesity. […] After twelve weeks of HF-diet feeding, two weeks of SC administration of lipidized PrRP analogs was initiated while the mice were kept on the HF diet. The following experimental groups were established: […] Food intake and BW were monitored daily during the dosing period. At the end of the experiment, the mice were sacrificed by decapitation. The trunk blood was collected, and the blood plasma was separated and stored at -20°C. The visceral adipose tissues (VAT) (from abdominal part), subcutaneous adipose tissues (SCAT) (all adipose tissue depots under the skin), perirenal adipose tissues, interscapular brown adipose tissues (BAT), and livers of all of the mice were dissected, weighed, flash-frozen in liquid nitrogen, and stored at -70°C for later extraction of RNA.

GPR10 [4] = target: T2, GPR10; assay: Beta-lactamase-dependent FRET assay (bla reporter gene) in CHO-K1 cells overexpressing GPR10; type: cell-based; set-up: expressed in transfected cells; host or cells: CHO-K1
Protocol: CHO-K1 cells overexpressing GPR10 were plated at 40,000 cells/well in 128 μl of assay medium (DMEM containing 10% dialyzed FBS, 0.1 mM NEAA, 25 mM HEPES, 1% penicillin/streptomycin, and 2 mM L-glutamine) in a 96-well plate and were incubated for 20 h at 37°C/5% CO2. The assay was performed according to the manufacturer's protocol.
The results from the lactamase assay were analyzed using nonlinear regression by log agonist vs. response using GraphPad software.

[5] = Cumulative food intake of DIO mice during 2-week SC treatment; type: in vivo, C57BL/6 mice; conditions: two weeks of SC treatment, 5 mg/kg twice a day, in words
Source text: as §1

[6] = average of the single experiments, read-out: Activation of bla reporter gene in GPR10 overexpressing cells, EC50, AVERAGE
[7] = average of the single experiments

T1 sequence (Q9Y5X5 whole entry): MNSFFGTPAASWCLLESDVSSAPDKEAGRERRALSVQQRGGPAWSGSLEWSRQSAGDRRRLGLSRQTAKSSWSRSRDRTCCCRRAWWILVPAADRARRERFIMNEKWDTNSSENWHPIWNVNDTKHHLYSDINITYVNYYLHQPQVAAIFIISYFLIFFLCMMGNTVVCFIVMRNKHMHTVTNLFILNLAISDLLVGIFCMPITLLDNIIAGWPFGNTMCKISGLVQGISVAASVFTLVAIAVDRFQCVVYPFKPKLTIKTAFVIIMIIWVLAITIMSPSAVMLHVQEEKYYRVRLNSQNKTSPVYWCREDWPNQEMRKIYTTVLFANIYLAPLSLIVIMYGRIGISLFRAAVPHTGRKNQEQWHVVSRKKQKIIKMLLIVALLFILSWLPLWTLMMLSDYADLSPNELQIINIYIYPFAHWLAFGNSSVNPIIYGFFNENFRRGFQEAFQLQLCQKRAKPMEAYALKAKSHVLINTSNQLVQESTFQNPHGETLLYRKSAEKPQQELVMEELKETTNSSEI

Compound	c-Fos immunoreactivity in Arc, PVN and DMN (c-Fos)	Decrease of average BW at the end of the experiment [1] [%]	% binding human PrRP31 (NPFF2) (human NPFF2) [%]	Ki (human NPFF2; membranes of CHO-K1 cells overexpressing NPFF2, 0.1 nM radioligand, Cheng-Prusoff, mean ± SEM, SEM) [nM]	Ki (GPR10 [2]) [nM]	% binding human PrRP31 (GPR10) (GPR10 [2]) [%]	125I-human PrRP31 binding to human GPR10, Ki (GPR10 [2])	Liver weight [3] [g]	Perirenal AT [3]	Total AT [3]	EC50 (GPR10 [4]; [6]) [nM]	Food intake compared to the saline-treated control group [5]	Ki (human NPFF2; [7]) [nM]	Effect on BW ([1]; two weeks of SC treatment, 5 mg/kg twice a day, in words)	EC50 (GPR10 [4]; CHO-K1 cells, mean ± SEM of at least three experiments, SEM, read-out: Activation of bla reporter gene in GPR10 overexpressing cells, EC50) [nM]
CCCCCCCCCCCCCCCC(=O)N[C@@H](CCC(=O)NCCCC[C@H](NC(=O)[C@@H](NC(=O)[C@H](CCC(=O)O)NC(=O)[C@H](CCSC)NC(=O)[C@H](CO)NC(=O)[C@H](Cc1c[nH]cn1)NC(=O)[C@H](CCCNC(=N)N)NC(=O)[C@H](Cc1c[nH]cn1)NC(=O)[C@@H](NC(=O)[C@H](CCCNC(=N)N)NC(=O)[C@@H](N)CO)[C@@H](C)O)[C@@H](C)CC)C(=O)N[C@H](C(=O)N1CCC[C@H]1C(=O)N[C@@H](CC(=O)O)C(=O)N[C@H](C(=O)N[C@@H](CC(N)=O)C(=O)N1CCC[C@H]1C(=O)N[C@@H](C)C(=O)N[C@@H](Cc1c[nH]c2ccccc12)C(=O)N[C@@H](Cc1ccc(O)cc1)C(=O)N[C@@H](C)C(=O)N[C@@H](CO)C(=O)N[C@@H](CCCNC(=N)N)C(=O)NCC(=O)N[C@H](C(=O)N[C@@H](CCCNC(=N)N)C(=O)N1CCC[C@H]1C(=O)N[C@H](C(=O)NCC(=O)N[C@@H](CCCNC(=N)N)C(=O)N[C@@H](Cc1ccccc1)C(N)=O)C(C)C)[C@@H](C)CC)[C@@H](C)CC)[C@@H](C)O)C(=O)O [analog 1] (H-SRTHRHSMEIK([γGlu-Palmitoyl])TPDINPAWYASRGIRPVGRF-NH2; N-terminus assumed)	significant increase	12	128	39.1 ± 23.1	5.01 ± 1.03	91	9.92 nM and 5.47 nM and 4.23 nM and 3.01 nM and 1.75 nM and 3.77 nM and 6.96 nM	1.27 ± 0.05	2.72 ± 0.11 % of BW	14.59 ± 0.32 % of BW	0.0463	did not reach statistical significance			
CCCCCCCCCCCCCCCC(=O)NCCCOCCOCCOCCCNC(=O)CCC(=O)NCCCC[C@H](NC(=O)[C@@H](NC(=O)[C@H](CCC(=O)O)NC(=O)[C@H](CCSC)NC(=O)[C@H](CO)NC(=O)[C@H](Cc1c[nH]cn1)NC(=O)[C@H](CCCNC(=N)N)NC(=O)[C@H](Cc1c[nH]cn1)NC(=O)[C@@H](NC(=O)[C@H](CCCNC(=N)N)NC(=O)[C@@H](N)CO)[C@@H](C)O)[C@@H](C)CC)C(=O)N[C@H](C(=O)N1CCC[C@H]1C(=O)N[C@@H](CC(=O)O)C(=O)N[C@H](C(=O)N[C@@H](CC(N)=O)C(=O)N1CCC[C@H]1C(=O)N[C@@H](C)C(=O)N[C@@H](Cc1c[nH]c2ccccc12)C(=O)N[C@@H](Cc1ccc(O)cc1)C(=O)N[C@@H](C)C(=O)N[C@@H](CO)C(=O)N[C@@H](CCCNC(=N)N)C(=O)NCC(=O)N[C@H](C(=O)N[C@@H](CCCNC(=N)N)C(=O)N1CCC[C@H]1C(=O)N[C@H](C(=O)NCC(=O)N[C@@H](CCCNC(=N)N)C(=O)N[C@@H](Cc1ccccc1)C(N)=O)C(C)C)[C@@H](C)CC)[C@@H](C)CC)[C@@H](C)O [analog 2] (H-SRTHRHSMEIK([Suc-TTDA(Palmitoyl)])TPDINPAWYASRGIRPVGRF-NH2; N-terminus assumed)		11.75	761		3.79 ± 0.47	121	4.698 nM and 3.31 nM and 3.352 nM	1.31 ± 0.06	2.73 ± 0.17 % of BW	15.70 ± 0.53 % of BW	0.0835	significantly reduced	6.57		
CCCCCCCCCCCCCCCC(=O)NCCCOCCOCCOCCCNC(=O)CCC(=O)NCCCC[C@H](NC(=O)[C@@H](NC(=O)[C@H](CCC(=O)O)NC(=O)[C@H](CCSC)NC(=O)[C@H](CO)NC(=O)[C@H](Cc1c[nH]cn1)NC(=O)[C@H](CCCNC(=N)N)NC(=O)[C@H](Cc1c[nH]cn1)NC(=O)[C@@H](NC(=O)[C@H](CCCNC(=N)N)NC(=O)[C@H](CO)NC(=O)CCC(=O)NCCCOCCOCCOCCCNC(=O)CCCCCCCCCCCCCCC)[C@@H](C)O)[C@@H](C)CC)C(=O)N[C@H](C(=O)N1CCC[C@H]1C(=O)N[C@@H](CC(=O)O)C(=O)N[C@H](C(=O)N[C@@H](CC(N)=O)C(=O)N1CCC[C@H]1C(=O)N[C@@H](C)C(=O)N[C@@H](Cc1c[nH]c2ccccc12)C(=O)N[C@@H](Cc1ccc(O)cc1)C(=O)N[C@@H](C)C(=O)N[C@@H](CO)C(=O)N[C@@H](CCCNC(=N)N)C(=O)NCC(=O)N[C@H](C(=O)N[C@@H](CCCNC(=N)N)C(=O)N1CCC[C@H]1C(=O)N[C@H](C(=O)NCC(=O)N[C@@H](CCCNC(=N)N)C(=O)N[C@@H](Cc1ccccc1)C(N)=O)C(C)C)[C@@H](C)CC)[C@@H](C)CC)[C@@H](C)O [analog 3] ({TTDA(Palmitoyl)-Suc}-SRTHRHSMEIK([Suc-TTDA(Palmitoyl)])TPDINPAWYASRGIRPVGRF-NH2)			580		32.4 ± 3.57	14	39 nM and 26.7 nM and 31.5 nM	1.58 ± 0.09	3.09 ± 0.16 % of BW	16.13 ± 0.38 % of BW		did not have any significant effects	8.63	did not have any significant effects	0.284 ± 0.054
